Columns and labels:
[1] = Apparent permeability across apical to basolateral side in human Caco-2 cells assessed as drug recovery at pH 6.5 to 7.4; assay type: ADME, cell-based; settings: Caco-2, pH 6.5, read-out: Drug recovery
[2] = system: NCI/ADR-RES; experiment: Anticancer activity against human NCI/ADR-RES cells assessed as total cell growth inhibition incubated for 48 hrs by SRB assay; assay type: functional
[3] = system: RPMI-8226; experiment: Induction of apoptosis in human RPMI-8226 assessed as fold increase in caspase-3/7 activity at 2.12 uM; assay type: functional
[4] = system: IGROV-1; experiment: Anticancer activity against human IGROV-1 cells assessed as cell growth inhibition incubated for 48 hrs by SRB assay; assay type: functional
[5] = system: RPMI-8226; experiment: Anticancer activity against human RPMI-8226 cells assessed as total cell growth inhibition incubated for 48 hrs by SRB assay; assay type: functional
[6] = target: RAF proto-oncogene serine/threonine-protein kinase (Homo sapiens, UniProt P04049); experiment: Inhibition of c-Raf (unknown origin) in presence of ATP by hotspot kinase assay
[7] = system: COLO 205; experiment: Anticancer activity against human COLO 205 cells assessed as total cell growth inhibition incubated for 48 hrs by SRB assay; assay type: functional
[8] = system: UO-31; experiment: Anticancer activity against human UO-31 cells assessed as cell growth inhibition incubated for 48 hrs by SRB assay; assay type: functional
[9] = system: OVCAR-3; experiment: Anticancer activity against human OVCAR-3 cells assessed as total cell growth inhibition incubated for 48 hrs by SRB assay; assay type: functional
[10] = system: UACC-62; experiment: Anticancer activity against human UACC-62 cells assessed as total cell growth inhibition incubated for 48 hrs by SRB assay; assay type: functional
[11] = species on record: Homo sapiens; experiment: Inhibition of ABL (unknown origin) at 1 uM in presence of ATP by hotspot kinase assay
[12] = system: HOP-92; experiment: Anticancer activity against human HOP-92 cells assessed as total cell growth inhibition incubated for 48 hrs by SRB assay; assay type: functional
[13] = system: BT-549; experiment: Anticancer activity against human BT-549 cells assessed as total cell growth inhibition incubated for 48 hrs by SRB assay; assay type: functional
[14] = system: T47D; experiment: Anticancer activity against human T47D cells assessed as total cell growth inhibition incubated for 48 hrs by SRB assay; assay type: functional
[15] = system: A498; experiment: Anticancer activity against human A498 cells assessed as cell growth inhibition incubated for 48 hrs by SRB assay; assay type: functional
[16] = system: Serine/threonine-protein kinase B-raf (Homo sapiens), P15056 [V600E]; experiment: Inhibition of B-RAF V600E mutant (unknown origin) at 1 uM in presence of ATP by hotspot kinase assay
[17] = system: U-251; experiment: Anticancer activity against human U-251 cells assessed as cell growth inhibition incubated for 48 hrs by SRB assay; assay type: functional
[18] = system: RPMI-8226; experiment: Induction of apoptosis in human RPMI-8226 assessed as fold increase in caspase-3/7 activity at 1.68 uM; assay type: functional
[19] = system: NCI-H23; experiment: Anticancer activity against human NCI-H23 cells assessed as cell growth inhibition incubated for 48 hrs by SRB assay; assay type: functional
[20] = system: HOP-92; experiment: Anticancer activity against human HOP-92 cells assessed as cell growth inhibition incubated for 48 hrs by SRB assay; assay type: functional
[21] = system: SK-MEL-5; experiment: Anticancer activity against human SK-MEL-5 cells assessed as cell growth inhibition incubated for 48 hrs by SRB assay; assay type: functional
[22] = system: HL-60; experiment: Anticancer activity against human HL-60 cells assessed as cell growth inhibition incubated for 48 hrs by SRB assay; assay type: functional
[23] = system: SF-268; experiment: Anticancer activity against human SF-268 cells assessed as total cell growth inhibition incubated for 48 hrs by SRB assay; assay type: functional
[24] = system: OVCAR-4; experiment: Anticancer activity against human OVCAR-4 cells assessed as cell growth inhibition incubated for 48 hrs by SRB assay; assay type: functional
[25] = system: SK-MEL-2; experiment: Anticancer activity against human SK-MEL-2 cells assessed as total cell growth inhibition incubated for 48 hrs by SRB assay; assay type: functional
[26] = system: HCT-116; experiment: Anticancer activity against human HCT-116 cells assessed as cell growth inhibition incubated for 48 hrs by SRB assay; assay type: functional
[27] = target: Serine/threonine-protein kinase A-Raf (Homo sapiens) (UniProt P10398); experiment: Inhibition of A-Raf (unknown origin) at 1 uM in presence of ATP by hotspot kinase assay
[28] = system: MOLT-4; experiment: Anticancer activity against human MOLT-4 cells assessed as total cell growth inhibition incubated for 48 hrs by SRB assay; assay type: functional
[29] = system: SF-295; experiment: Anticancer activity against human SF-295 cells assessed as total cell growth inhibition incubated for 48 hrs by SRB assay; assay type: functional
[30] = system: SF-539; experiment: Anticancer activity against human SF-539 cells assessed as total cell growth inhibition incubated for 48 hrs by SRB assay; assay type: functional
[31] = system: UACC-257; experiment: Anticancer activity against human UACC-257 cells assessed as cell growth inhibition incubated for 48 hrs by SRB assay; assay type: functional
[32] = system: RPMI-8226; experiment: Induction of necrosis in human RPMI-8226 cells assessed as LDH release at 1.68 uM; assay type: functional
[33] = system: SN12C; experiment: Anticancer activity against human SN12C cells assessed as cell growth inhibition incubated for 48 hrs by SRB assay; assay type: functional
[34] = system: HCT-15; experiment: Anticancer activity against human HCT-15 cells assessed as total cell growth inhibition incubated for 48 hrs by SRB assay; assay type: functional
[35] = system: RPMI-8226; experiment: Induction of necrosis in human RPMI-8226 cells assessed as LDH release at 0.84 uM; assay type: functional
[36] = system: MDA-MB-468; experiment: Anticancer activity against human MDA-MB-468 cells assessed as total cell growth inhibition incubated for 48 hrs by SRB assay; assay type: functional
[37] = system: KM12; experiment: Anticancer activity against human KM12 cells assessed as total cell growth inhibition incubated for 48 hrs by SRB assay; assay type: functional
[38] = system: SK-OV-3; experiment: Anticancer activity against human SK-OV-3 cells assessed as cell growth inhibition incubated for 48 hrs by SRB assay; assay type: functional
[39] = system: CCRF-CEM; experiment: Anticancer activity against human CCRF-CEM cells assessed as cell growth inhibition incubated for 48 hrs by SRB assay; assay type: functional
[40] = system: 786-0; experiment: Anticancer activity against human 786-0 cells assessed as cell growth inhibition incubated for 48 hrs by SRB assay; assay type: functional
[41] = system: RPMI-8226; experiment: Induction of apoptosis in human RPMI-8226 assessed as fold increase in caspase-3/7 activity at 0.84 uM; assay type: functional
[42] = target: Vascular endothelial growth factor receptor 2 (Homo sapiens) (UniProt P35968); experiment: Inhibition of VEGFR2 (unknown origin) at 1 uM in presence of ATP by hotspot kinase assay
[43] = system: LOX IMVI; experiment: Anticancer activity against human LOX IMVI cells assessed as total cell growth inhibition incubated for 48 hrs by SRB assay; assay type: functional
[44] = Apparent permeability of the compound from apical to basolateral side in human Caco-2 cells at pH 6.5 to 7.4; assay type: ADME, cell-based; settings: Caco-2, pH 6.5
[45] = system: SNB-75; experiment: Anticancer activity against human SNB-75 cells assessed as cell growth inhibition incubated for 48 hrs by SRB assay; assay type: functional
[46] = system: RPMI-8226; experiment: Induction of necrosis in human RPMI-8226 cells assessed as LDH release at 2.12 uM; assay type: functional

Sequence of Serine/threonine-protein kinase B-raf (Homo sapiens), P15056 [V600E] (P15056 whole entry V600E): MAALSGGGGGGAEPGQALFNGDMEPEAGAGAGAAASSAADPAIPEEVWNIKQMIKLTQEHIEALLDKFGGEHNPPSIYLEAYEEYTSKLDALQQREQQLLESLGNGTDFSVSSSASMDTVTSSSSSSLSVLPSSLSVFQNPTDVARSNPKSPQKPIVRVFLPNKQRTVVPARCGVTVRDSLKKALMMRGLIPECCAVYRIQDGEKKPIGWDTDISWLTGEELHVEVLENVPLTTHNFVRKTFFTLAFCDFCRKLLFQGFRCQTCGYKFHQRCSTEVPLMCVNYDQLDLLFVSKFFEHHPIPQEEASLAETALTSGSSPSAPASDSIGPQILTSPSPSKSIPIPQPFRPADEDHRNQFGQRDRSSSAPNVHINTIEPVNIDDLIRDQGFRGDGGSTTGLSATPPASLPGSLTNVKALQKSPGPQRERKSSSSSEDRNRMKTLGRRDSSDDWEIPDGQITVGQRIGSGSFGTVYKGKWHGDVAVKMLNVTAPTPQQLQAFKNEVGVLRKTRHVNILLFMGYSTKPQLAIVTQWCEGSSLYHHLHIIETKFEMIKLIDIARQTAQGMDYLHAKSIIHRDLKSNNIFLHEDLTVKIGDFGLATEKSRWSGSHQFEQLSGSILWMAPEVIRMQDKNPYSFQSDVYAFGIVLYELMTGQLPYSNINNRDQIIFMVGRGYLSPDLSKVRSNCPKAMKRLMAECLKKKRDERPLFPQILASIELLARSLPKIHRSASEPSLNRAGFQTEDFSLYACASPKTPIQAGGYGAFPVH
Sequence of Vascular endothelial growth factor receptor 2 (Homo sapiens) (P35968 whole entry): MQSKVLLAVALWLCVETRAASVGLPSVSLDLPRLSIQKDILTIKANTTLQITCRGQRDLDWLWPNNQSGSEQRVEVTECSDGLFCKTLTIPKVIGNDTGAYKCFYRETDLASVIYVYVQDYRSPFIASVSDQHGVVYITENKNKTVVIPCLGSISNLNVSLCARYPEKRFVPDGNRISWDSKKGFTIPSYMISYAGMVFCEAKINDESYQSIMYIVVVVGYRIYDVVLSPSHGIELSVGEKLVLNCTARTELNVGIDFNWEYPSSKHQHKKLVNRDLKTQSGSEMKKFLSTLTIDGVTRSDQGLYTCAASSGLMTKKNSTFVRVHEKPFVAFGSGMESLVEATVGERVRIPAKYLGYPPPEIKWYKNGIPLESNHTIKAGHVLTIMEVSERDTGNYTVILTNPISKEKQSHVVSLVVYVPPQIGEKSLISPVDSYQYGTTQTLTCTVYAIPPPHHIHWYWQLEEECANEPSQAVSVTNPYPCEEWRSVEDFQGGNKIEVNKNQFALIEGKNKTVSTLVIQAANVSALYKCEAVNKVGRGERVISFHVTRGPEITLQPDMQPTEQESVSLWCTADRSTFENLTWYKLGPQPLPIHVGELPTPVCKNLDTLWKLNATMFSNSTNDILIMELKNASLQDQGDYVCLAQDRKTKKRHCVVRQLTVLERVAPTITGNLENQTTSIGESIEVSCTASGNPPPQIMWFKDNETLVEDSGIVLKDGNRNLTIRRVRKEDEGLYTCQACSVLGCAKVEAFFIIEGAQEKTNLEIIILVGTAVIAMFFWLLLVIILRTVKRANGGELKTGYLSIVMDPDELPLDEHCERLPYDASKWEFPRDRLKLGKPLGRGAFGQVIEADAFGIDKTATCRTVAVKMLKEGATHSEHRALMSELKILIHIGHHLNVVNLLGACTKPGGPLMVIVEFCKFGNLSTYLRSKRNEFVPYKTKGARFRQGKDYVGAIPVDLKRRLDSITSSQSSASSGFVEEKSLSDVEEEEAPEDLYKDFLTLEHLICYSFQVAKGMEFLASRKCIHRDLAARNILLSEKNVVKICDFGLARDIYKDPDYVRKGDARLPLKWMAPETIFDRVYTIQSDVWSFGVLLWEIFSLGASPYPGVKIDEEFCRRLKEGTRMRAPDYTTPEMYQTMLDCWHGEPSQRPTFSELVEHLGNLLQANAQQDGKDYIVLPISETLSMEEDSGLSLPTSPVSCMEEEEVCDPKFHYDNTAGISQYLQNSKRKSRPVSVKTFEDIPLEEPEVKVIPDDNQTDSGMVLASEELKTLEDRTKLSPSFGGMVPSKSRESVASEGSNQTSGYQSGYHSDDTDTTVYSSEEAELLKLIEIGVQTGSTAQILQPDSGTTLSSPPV
Sequence of RAF proto-oncogene serine/threonine-protein kinase (P04049 whole entry): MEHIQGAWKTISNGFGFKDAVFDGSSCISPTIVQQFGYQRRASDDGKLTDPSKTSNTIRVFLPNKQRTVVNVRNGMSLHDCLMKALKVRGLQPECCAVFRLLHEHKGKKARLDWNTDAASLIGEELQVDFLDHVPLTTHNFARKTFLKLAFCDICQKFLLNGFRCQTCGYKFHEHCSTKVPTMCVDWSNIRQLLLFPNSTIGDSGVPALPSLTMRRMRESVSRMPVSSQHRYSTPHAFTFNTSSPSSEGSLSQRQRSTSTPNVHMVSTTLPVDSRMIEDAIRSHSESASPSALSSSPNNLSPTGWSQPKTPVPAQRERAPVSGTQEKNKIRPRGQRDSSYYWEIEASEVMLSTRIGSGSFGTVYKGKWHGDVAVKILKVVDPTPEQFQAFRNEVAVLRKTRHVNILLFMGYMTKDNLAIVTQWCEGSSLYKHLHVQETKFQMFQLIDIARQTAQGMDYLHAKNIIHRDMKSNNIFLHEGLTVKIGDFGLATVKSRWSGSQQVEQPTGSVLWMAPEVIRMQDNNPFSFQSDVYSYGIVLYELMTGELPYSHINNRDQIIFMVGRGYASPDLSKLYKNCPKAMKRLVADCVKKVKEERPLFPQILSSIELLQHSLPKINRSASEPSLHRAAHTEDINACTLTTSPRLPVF
Sequence of Serine/threonine-protein kinase A-Raf (Homo sapiens) (P10398 whole entry): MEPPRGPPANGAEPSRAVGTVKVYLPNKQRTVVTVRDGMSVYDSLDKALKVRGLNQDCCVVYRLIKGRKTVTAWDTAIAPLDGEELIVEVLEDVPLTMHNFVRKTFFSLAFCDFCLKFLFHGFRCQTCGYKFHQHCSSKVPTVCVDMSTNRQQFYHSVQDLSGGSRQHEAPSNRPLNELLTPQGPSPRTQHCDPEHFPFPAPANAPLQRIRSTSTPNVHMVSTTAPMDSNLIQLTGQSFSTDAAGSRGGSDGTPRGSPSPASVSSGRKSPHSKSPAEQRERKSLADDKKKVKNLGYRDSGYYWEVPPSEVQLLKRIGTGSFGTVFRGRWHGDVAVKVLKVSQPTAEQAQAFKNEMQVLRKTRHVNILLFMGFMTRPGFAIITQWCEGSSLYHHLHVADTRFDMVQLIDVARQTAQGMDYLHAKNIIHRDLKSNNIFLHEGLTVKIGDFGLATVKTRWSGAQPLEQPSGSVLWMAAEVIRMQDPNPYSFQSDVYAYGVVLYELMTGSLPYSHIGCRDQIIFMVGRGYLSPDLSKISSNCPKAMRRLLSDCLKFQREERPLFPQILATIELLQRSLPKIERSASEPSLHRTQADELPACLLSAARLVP

## COc1cc2cc(Oc3ccc(NC(=O)Nc4cc(C(F)(F)F)cc(C(F)(F)F)c4)cc3)c(C)nc2cc1OCCN1CCOCC1
[1]
  recovery: 74%
[2]
  TGI: 7.21 µM
[3]
  fold change (FC): 2.84
[4]
  GI50: 1540 nM
[5]
  TGI: 2.12 µM
[6]
  IC50: 193 nM
[7]
  TGI: 2.18 µM
[8]
  GI50: 1010 nM
[9]
  TGI: 5.28 µM
[10]
  TGI: 6.9 µM
[11]
  inhibition: -2.3%
[12]
  TGI: 2.71 µM
[13]
  TGI: 7.35 µM
[14]
  TGI: 10.2 µM
[15]
  GI50: 1800 nM
[16]
  inhibition: 34.6%
[17]
  GI50: 1130 nM
[18]
  fold change (FC): 2.68
[19]
  GI50: 1660 nM
[20]
  GI50: 900 nM
[21]
  GI50: 890 nM
[22]
  GI50: 1620 nM
[23]
  TGI: 8.06 µM
[24]
  GI50: 1880 nM
[25]
  TGI: 6.91 µM
[26]
  GI50: 1420 nM
[27]
  inhibition: 1.23%
[28]
  TGI: 4.29 µM
[29]
  TGI: 2920 nM
[30]
  TGI: 5.25 µM
[31]
  GI50: 1400 nM
[32]
  Activity: 23.4%
[33]
  GI50: 1490 nM
[34]
  TGI: 2.77 µM
[35]
  Activity: 9.5%
[36]
  TGI: 3.76 µM
[37]
  TGI: 5.95 µM
[38]
  GI50: 2.09 µM
[39]
  GI50: 1410 nM
[40]
  GI50: 1280 nM
[41]
  fold change (FC): 1.97
[42]
  inhibition: 6.34%
[43]
  TGI: 5090 nM
[44]
  Papp A→B: 0.4 ×10⁻⁶ cm/s
[45]
  GI50: 1020 nM
[46]
  Activity: 31.65%

## COc1cc2cc(Oc3ccc(NC(=O)Nc4ccc(Cl)c(C(F)(F)F)c4)cc3)c(C)nc2cc1OCCN1CCOCC1
[2]
  TGI: 12.6 µM
[4]
  GI50: 2430 nM
[5]
  TGI: 4.34 µM
[6]
  IC50: 82 nM
[7]
  TGI: 3.78 µM
[8]
  GI50: 1400 nM
[9]
  TGI: 3.47 µM
[10]
  TGI: 3.46 µM
[11]
  inhibition: -5.6%
[12]
  TGI: 6.17 µM
[13]
  TGI: 9.33 µM
[14]
  TGI: 5.2 µM
[15]
  GI50: 2450 nM
[16]
  inhibition: 28.5%
[17]
  GI50: 1760 nM
[19]
  GI50: 1120 nM
[20]
  GI50: 1660 nM
[21]
  GI50: 1150 nM
[22]
  GI50: 2320 nM
[23]
  TGI: 8.44 µM
[24]
  GI50: 580 nM
[25]
  TGI: 4.06 µM
[26]
  GI50: 10800 nM
[27]
  inhibition: -6.33%
[28]
  TGI: 10.5 µM
[29]
  TGI: 2850 nM
[30]
  TGI: 3.26 µM
[31]
  GI50: 1570 nM
[33]
  GI50: 2560 nM
[34]
  TGI: 3.18 µM
[36]
  TGI: 2.06 µM
[37]
  TGI: 5.3 µM
[38]
  GI50: 3.34 µM
[39]
  GI50: 1450 nM
[40]
  GI50: 1890 nM
[42]
  inhibition: 2.32%
[43]
  TGI: 2810 nM
[45]
  GI50: 1650 nM

## COc1cc2cc(Oc3ccc(NC(=O)Nc4ccc(F)c(C(F)(F)F)c4)cc3)c(C)nc2cc1OCCN1CCOCC1
[2]
  TGI: 12.1 µM
[4]
  GI50: 2690 nM
[5]
  TGI: 4.25 µM
[6]
  IC50: 67 nM
[7]
  TGI: 4.28 µM
[8]
  GI50: 1710 nM
[9]
  TGI: 13.6 µM
[10]
  TGI: 4.24 µM
[11]
  inhibition: -0.53%
[12]
  TGI: 4.96 µM
[13]
  TGI: 8.46 µM
[14]
  TGI: 32.1 µM
[15]
  GI50: 2800 nM
[16]
  inhibition: 24.8%
[17]
  GI50: 2830 nM
[19]
  GI50: 1430 nM
[20]
  GI50: 1310 nM
[21]
  GI50: 1140 nM
[22]
  GI50: 2380 nM
[23]
  TGI: 19.8 µM
[24]
  GI50: 710 nM
[25]
  TGI: 7.58 µM
[26]
  GI50: 1110 nM
[28]
  TGI: 11.4 µM
[29]
  TGI: 4220 nM
[30]
  TGI: 3.44 µM
[31]
  GI50: 1750 nM
[33]
  GI50: 2650 nM
[34]
  TGI: 4.19 µM
[36]
  TGI: 10.4 µM
[37]
  TGI: 10.6 µM
[38]
  GI50: 3.76 µM
[39]
  GI50: 1720 nM
[40]
  GI50: 1730 nM
[42]
  inhibition: -5.85%
[43]
  TGI: 2860 nM
[45]
  GI50: 1960 nM

Source: ChEMBL document CHEMBL5113398, “Design and synthesis of new quinoline derivatives as selective C-RAF kinase inhibitors with potent anticancer activity” (Eur J Med Chem, 2022)
